Patent US11980188B2, “Spiro cyclohexanedione derivates as herbicides” (SYNGENTA PARTICIPATIONS AG, priority 2018, dated 2024)

Legend:
Assay in all cases: Glasshouse herbicide test, pre- and post-emergence, percentage damage
Assay type in all cases: in vivo
[1] = test system: Echinochloa crus-galli (ECHCG); settings: 250 g/h, evaluated after 13 days, percentage damage on five point scale; for ECHCG POST: post-emergence; for ECHCG PRE: pre-emergence
Description: (§1) Seeds of a variety of test species are sown in standard soil in pots (Lolium perenne (LOLPE), Setaria faberi (SETFA), Alopecurus myosuroides (ALOMY), Echinochloa crus-galli (ECHCG), Avena fatua (AVEFA)). After cultivation for one day (pre-emergence) or after 8 days cultivation (post-emergence) under controlled conditions in a glasshouse (at 24/16° C., day/night; 14 hours light; 65% humidity), the plants are sprayed with an aqueous spray solution derived from the formulation of the technical active ingredient in acetone/water (50:50) solution containing 0.5% Tween 20 (polyoxyethelyene sorbitan monolaurate, CAS RN 9005-64-5). Compounds are applied at […]. The test plants are then grown in a glasshouse under controlled conditions in a glasshouse (at 24/16° C., day/night; 14 hours light; 65% humidity) and watered twice daily. After 13 days for pre and post-emergence, the test is evaluated for the percentage damage caused to the plant. The biological activities are shown in the following table on a five point scale (5=80-100%; 4=60-79%; 3=40-59%; 2=20-39%; 1=0-19%).

[2] = test system: Lolium perenne (LOLPE); settings: 250 g/h, evaluated after 13 days, percentage damage on five point scale; for LOLPE POST: post-emergence; for LOLPE PRE: pre-emergence
Description: as §1

[3] = test system: Setaria faberi (SETFA); settings: 250 g/h, evaluated after 13 days, percentage damage on five point scale; for SETFA POST: post-emergence; for SETFA PRE: pre-emergence
Description: as §1

[4] = test system: Alopecurus myosuroides (ALOMY); settings: 250 g/h, evaluated after 13 days, percentage damage on five point scale; for ALOMY PRE: pre-emergence; for ALOMY POST: post-emergence
Description: as §1

[5] = test system: Avena fatua (AVEFA); settings: 250 g/h, evaluated after 13 days, percentage damage on five point scale; for AVEFA POST: post-emergence; for AVEFA PRE: pre-emergence
Description: as §1

## Cc1cc(-c2ccc(F)cc2)cc(C)c1C1C(=O)CC2(CCN(C(=O)C3CC3)CC2)CC1=O [Compound A59]
[1]
  ECHCG POST: 5 (5=80-100%)
  ECHCG PRE: 5 (5=80-100%)
[2]
  LOLPE POST: 5 (5=80-100%)
  LOLPE PRE: 5 (5=80-100%)
[3]
  SETFA POST: 5 (5=80-100%)
  SETFA PRE: 5 (5=80-100%)
[4]
  ALOMY PRE: 5 (5=80-100%)
[5]
  AVEFA POST: 5 (5=80-100%)
  AVEFA PRE: 5 (5=80-100%)

## Cc1cc(-c2ccc(C#N)cn2)cc(C)c1C1C(=O)CC2(CCN(C(=O)CC#N)CC2)CC1=O [Compound A44]
[1]
  ECHCG POST: 4 (4=60-79%)
  ECHCG PRE: 5 (5=80-100%)
[2]
  LOLPE POST: 5 (5=80-100%)
  LOLPE PRE: 3 (3=40-59%)
[3]
  SETFA POST: 5 (5=80-100%)
  SETFA PRE: 5 (5=80-100%)
[4]
  ALOMY POST: 5 (5=80-100%)
  ALOMY PRE: 5 (5=80-100%)
[5]
  AVEFA POST: 5 (5=80-100%)
  AVEFA PRE: 3 (3=40-59%)

## Cc1cc(-c2ccc(F)cc2)cc(C)c1C1C(=O)CC2(CCN(C(=O)C(F)F)CC2)CC1=O [Compound A60]
[1]
  ECHCG POST: 5 (5=80-100%)
  ECHCG PRE: 5 (5=80-100%)
[2]
  LOLPE POST: 5 (5=80-100%)
  LOLPE PRE: 5 (5=80-100%)
[3]
  SETFA POST: 5 (5=80-100%)
  SETFA PRE: 5 (5=80-100%)
[4]
  ALOMY PRE: 5 (5=80-100%)
[5]
  AVEFA POST: 5 (5=80-100%)
  AVEFA PRE: 5 (5=80-100%)

## COCC(=O)N1CCC2(CC1)CC(=O)C(c1c(C)cc(-c3ccc(F)cc3)cc1C)C(=O)C2 [Compound A56]
[1]
  ECHCG POST: 5 (5=80-100%)
  ECHCG PRE: 5 (5=80-100%)
[2]
  LOLPE POST: 5 (5=80-100%)
  LOLPE PRE: 5 (5=80-100%)
[3]
  SETFA POST: 5 (5=80-100%)
  SETFA PRE: 5 (5=80-100%)
[4]
  ALOMY PRE: 5 (5=80-100%)
[5]
  AVEFA POST: 5 (5=80-100%)
  AVEFA PRE: 5 (5=80-100%)

## CC(=O)N1CCC2(CC1)CC(=O)C(c1c(C)cc(-c3ccc(Cl)cc3)cc1C)C(=O)C2 [Compound A49]
[1]
  ECHCG POST: 5 (5=80-100%)
  ECHCG PRE: 5 (5=80-100%)
[2]
  LOLPE POST: 5 (5=80-100%)
  LOLPE PRE: 5 (5=80-100%)
[3]
  SETFA POST: 5 (5=80-100%)
  SETFA PRE: 5 (5=80-100%)
[4]
  ALOMY POST: 5 (5=80-100%)
  ALOMY PRE: 5 (5=80-100%)
[5]
  AVEFA POST: 5 (5=80-100%)
  AVEFA PRE: 5 (5=80-100%)

## CC(=O)OC1=C(c2c(C)cc(-c3ccc(F)cc3)cc2C)C(=O)CC2(CCN(C(C)=O)CC2)C1 [Compound P1]
[1]
  ECHCG POST: 5 (5=80-100%)
  ECHCG PRE: 5 (5=80-100%)
[2]
  LOLPE POST: 5 (5=80-100%)
  LOLPE PRE: 5 (5=80-100%)
[3]
  SETFA POST: 5 (5=80-100%)
  SETFA PRE: 5 (5=80-100%)
[4]
  ALOMY POST: 5 (5=80-100%)
  ALOMY PRE: 5 (5=80-100%)
[5]
  AVEFA POST: 5 (5=80-100%)
  AVEFA PRE: 5 (5=80-100%)

## CC(=O)N1CCC2(CC1)CC(=O)C(c1c(C)cc(-c3ncc(Cl)cn3)cc1C)C(=O)C2 [Compound A51]
[1]
  ECHCG POST: 5 (5=80-100%)
  ECHCG PRE: 5 (5=80-100%)
[2]
  LOLPE POST: 5 (5=80-100%)
  LOLPE PRE: 5 (5=80-100%)
[3]
  SETFA POST: 5 (5=80-100%)
  SETFA PRE: 5 (5=80-100%)
[4]
  ALOMY POST: 5 (5=80-100%)
  ALOMY PRE: 5 (5=80-100%)
[5]
  AVEFA POST: 5 (5=80-100%)
  AVEFA PRE: 5 (5=80-100%)
